Results from patent US20160032005A1, “METHODS AND PHARMACEUTICALS COMPOSITIONS FOR TREATING BREAST CANCERS” (INSERM (Institut National de la Sante et de la Recherche …, priority 2014, published 2016).

Columns and labels:
Vangl2-p62 interaction [1] = target: T1, Vangl2-p62 interaction (Homo sapiens, UniProt Q9ULK5); experiment: Co-immunoprecipitation in SUM149 cells expressing the construct; format: cell-based; conditions: construct expressed in SUM149 cells, compared to GFP alone
T1 construct: endogenous in cells; host or cells: SUM149 cells / cell extracts
T1 sequence (Q9ULK5 1-521): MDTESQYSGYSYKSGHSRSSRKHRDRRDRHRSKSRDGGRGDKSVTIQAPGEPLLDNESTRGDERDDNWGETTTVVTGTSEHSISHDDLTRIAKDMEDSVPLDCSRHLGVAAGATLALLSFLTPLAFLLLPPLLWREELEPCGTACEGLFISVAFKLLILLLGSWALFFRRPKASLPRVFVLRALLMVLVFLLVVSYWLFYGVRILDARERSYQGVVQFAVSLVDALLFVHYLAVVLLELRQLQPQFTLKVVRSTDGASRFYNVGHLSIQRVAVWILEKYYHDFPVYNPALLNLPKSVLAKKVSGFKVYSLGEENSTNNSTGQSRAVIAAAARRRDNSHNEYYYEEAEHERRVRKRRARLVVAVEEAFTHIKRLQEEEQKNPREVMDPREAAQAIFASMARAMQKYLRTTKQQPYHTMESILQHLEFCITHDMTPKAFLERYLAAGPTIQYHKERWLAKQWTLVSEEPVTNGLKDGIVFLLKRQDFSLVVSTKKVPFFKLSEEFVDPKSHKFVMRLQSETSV
Description: (§1) As JNK signaling is usually activated following PCP activation, we next investigated this pathway in SUM149 cells. As previously shown, down-regulation of Vangl2 leads to a decrease in JNK signaling as shown using a time-dependent FCS stimulation of SUM149 transfected with shVangl2 compared to shLuc. No change in phosphorylation of GSK3 was evidenced in the absence of Vangl2. […] Knock-down of p62 expression in SUM149 cells phenocopied lack of Vangl2 expression. […] Next, we fused the p62 (346-388) sequence to GFP and expressed the construct in SUM149 cells. […] Indeed, this construct was able to specifically coimmunoprecipitate with Vangl2 and furthermore compete with the endogenous Vangl2-p62 interaction as shown by the decreased amount of endogenous p62 associated with Vangl2. In order to assess the contribution of the Vangl2-p62 interaction in JNK signaling, we utilized the dominant negative region of p62 and expressed this as a GFP-tagged protein.

JNK signaling = JNK signaling in SUM149 cells; format: cell-based; conditions: compared to GFP alone or shLuc
Description: as §1

p62 = p62 immunolocalization and protein level under autophagy modulators; format: cell-based; conditions: breast cancer and Hela cells
Description: (§2) We next addressed the potential colocalization of Vangl2 and p62 in SUM149 cells by immunofluorescence and confocal analysis. In these cells, Vangl2 and p62 have a punctate cytoplasmic pattern and colocalization between the two proteins was seen puncta in the perinuclear region. Specificity of the Vangl2 signal is attested by lack of staining in cells treated with shVangl2. p62 is present in autophagosomes where it accumulates ubiquitinylated proteins bound to its UBA domain for autophagic degradation. Autophagy is active when the fusion between autophagosomes and lysosomes occur leading to the formation of autophagolysosomes endowed with degradative properties. The fusion process, and therefore autophagy, can be inhibited by Bafilomycin A1, an inhibitor of the vacuolar ATPase that blocks the fusion process by blocking the membrane-bound lysosomal vacuolar ATPase (V-ATPase) to prevent the lysosomal lumen acidification responsible for cathepsin activation. Alternatively, autophagy can be induced by rapamycin, an inhibitor of mTOR [38]. […] Decrease of p62 protein level can also be monitored by western blot. Vangl2 protein levels remained unmodified by rapamycin treatment while another prominent feature of autophagy, i.e. degradation of p62 was readily seen. […]

Vangl2 = Vangl2 protein level (western blot) and cellular distribution under autophagy modulators; format: cell-based
Description: as §2

SUM149 cells [2] = experiment: Cell migration assay (Boyden chamber, serum as chemo-attractant); format: cell-based; conditions: compared to Venus ctrl or shLuc
SUM149 cells [3] = experiment: Long-term cell proliferation and anchorage-independent soft agar assays; format: cell-based; conditions: compared to Venus ctrl or shLuc
Description: In order to challenge the role of Vangl2 in tumor growth, we first designed different short hairpin RNA (shRNA) to downregulate Vangl2 protein expression in SUM149, a basal breast cancer cell line, which were targeted to different sequences of the VANGL2 gene. Vangl2 expression is decreased by approximately 90% with shVangl2 (clone 3.6.9 and 3.2.12) compared shLuc controls. […] Behaviour of shLuc-SUM149 and shVangl2-SUM149 cells was next compared in long-term cell proliferation and anchorage-independent experiments using soft agar assays. Cell proliferation and in vitro tumorigenicity of SUM149 cells were decreased when expression of Vangl2 was decreased using shVangl2 clone 3.6.9. This effect was confirmed using a second shVangl2 clone 3.2.12. The tumorigenic potential of Vangl2 was next assessed in vivo by performing subcutaneous xenografts in NOG mice. Orthotopic injections of shLuc-SUM149 and shVangl2-SUM149 cells were performed and tumour growth was periodically measured.
As JNK signaling is usually activated following PCP activation, we next investigated this pathway in SUM149 cells. As previously shown, down-regulation of Vangl2 leads to a decrease in JNK signaling as shown using a time-dependent FCS stimulation of SUM149 transfected with shVangl2 compared to shLuc. No change in phosphorylation of GSK3 was evidenced in the absence of Vangl2. […]

Vangl2-p62 interaction [4] = target: T1, Vangl2-p62 interaction; experiment: Competition of endogenous Vangl2-p62 interaction recovered by immunoprecipitation, peptide incubated in SUM149 cell extracts; format: binding; conditions: SUM149 cells / cell extracts

GFP-p62 (346-388): p62 (346-388) sequence fused to GFP, expressed in SUM149 cells
effect on endogenous Vangl2-p62 interaction in co-immunoprecipitation (Vangl2-p62 interaction [1]): dominant-negative effect | JNK signalling (JNK signaling): decrease

CO/C1=C\C(C)=C\[C@@H](C)[C@@H](O)[C@@H](C)C/C(C)=C/C=C/[C@H](OC)[C@@H]([C@@H](C)[C@@H](O)[C@H](C)[C@@]2(O)C[C@@H](O)[C@H](C)[C@@H](C(C)C)O2)OC1=O [Bafilomycin A1]
p62 immunolocalization (p62): accumulates | Vangl2 protein levels (Vangl2): not modified

Venus-p62 (346-388): Venus-tagged p62 (346-388) expressed by lentiviral infection
cell migration (SUM149 cells [2]): decrease | colonies in soft agar / in vitro tumorigenicity (SUM149 cells [3]): fewer colonies

polypeptide (346-371): polypeptide reduced in size, residues 346-371 of p62 (SEQ ID NO:2) (VDPSTGELQSLQMPESEGPSSLDPSQ; listed as Homo sapiens)
disruption of the endogenous Vangl2-p62 interaction (Vangl2-p62 interaction [4]): able to inhibit
